Experimental data published in patent publication US12600725B2 (Memorial Sloan-Kettering Cancer Center, priority 2013, dated 2026).
Entries after “also recorded” stand apart in the source; their conditions may differ. Like-named read-outs stand apart in the source and are kept apart here.

What was measured:
[1] = tested on: C2C12 cells; experiment: Viability of C2C12 cells visualized by light microscopy; assay type: cell-based, mouse; details: 24 h
[2] = tested on: IGF-II secretion by differentiated C2C12 cells; experiment: C2C12 differentiation and IGF-II secretion assay; assay type: cell-based, mouse; details: 24 hrs treatment
Source text: C2C12 differentiation and IGF-II secretion assay (Wanderling, S. et al. GRP94 is essential for mesoderm induction and muscle development because it regulates insulin-like growth factor secretion. Mol. Biol. Cell 18, 3764-75 (2007); Ostrovsky, O., Ahmed, N.T. & Argon, Y. The chaperone activity of GRP94 toward insulin-like growth factor II is necessary for the stress response to serum deprivation. Mol. Biol. Cell 20, 1855-64 (2009)). C2C12 cells were maintained and cultured in DMEM in the presence of 10% FBS and 1% penicillin/streptomycin (Culture medium). C2C12 is an immortal line of mouse skeletal myoblasts originally derived from satellite cells from the thigh muscle of a two month old female mouse donor. These cells differentiate well into myocytes under appropriate culture conditions. […] Secreted IGF-II was quantified by using IGF-II mouse ELISA kit (Abcam, AB100696) according to the manufacturer's instructions. […] The bound IGF-II was detected with a biotinylated anti-IGF-II antibody. After the sequential incubation with HRP conjugated streptavidin, TMB One-step substrate reagent and the Stop solution, the absorbance was measured at 450 nm. The secreted IGF-II was quantified against a standard curve generated with recombinant IGF-II provided by the kit.

[3] = tested on: Toll-like receptor 9 (TLR9) trafficking in HEK293 cells transfected with HA-TLR9; experiment: TLR9-trafficking assay; assay type: cell-based, human; details: 24 h treatment
Protocol: TLR^9-trafficking assay (Yang, Y. et al. Heat shock protein gp96 is a master chaperone for toll-like receptors and is important in the innate function of macrophages. Immunity 26, 215-26 (2007)). HEK 293T cells were transfected with pUNO-hTLR9-HA (Invivogen) using X-tremgene HP (Roche) according to the manufacturer's instructions. At 24 hrs post-transfection, cells were split onto cell culture chamber slides (Lab-Tek). Cells were then treated for 24 hrs with indicated compound at varying concentrations. After treatment, cells were fixed for 20 min in 4% paraformaldehyde in PBS, permeabilized with 0.1% Triton-X 100 in PBS for 10 min, blocked with 3% BSA in PBS for 30 min, followed by staining for 1 hr with an anti-HA antibody (Abcam, ab9110) or a normal rabbit IgG. Cells were washed with PBS, stained with an anti-rabbit-Cy3 antibody (Invitrogen) and finally mounted in the dark at 4° C. with Prolong Gold Antifade reagent (with DAPI). Cells were visualized under a confocal microscope (Leica Upright Confocal SP5). Fluorescence intensity was quantified using MetaMorph Microscopy Automation and Image Analysis Software (Molecular Devices Inc.) and normalized to the cell number.

[4] = tested on: Hsp70 induction and AKT degradation (cytosolic Hsp90 hallmarks) in C2C12 cells; experiment: Western blot of Hsp70 induction and AKT degradation in C2C12 cells; assay type: cell-based, mouse; details: 24 hrs
Protocol: Cell fractionation and immunoblotting. Cells were either treated with DMSO (vehicle) or indicated compounds for 24 hr and lysed in RIPA buffer (50 mM Tris-HCl, pH 7.4, 150 mM NaCl, 0.5% sodium deoxycholate and 0.5% NP40) supplemented with cocktail protease inhibitors (Roche) to produce whole cell lysates. Lysates for cytosol and membrane fractions were harvested using ProteoExtract Subcellular Proteome Extraction Kit (Calbiochem) following the manufacturer's instructions. Protein concentrations were determined using BCA kit (Pierce) according to the manufacturer's instructions. […] After washing off the excess antibodies, the membranes were incubated with the corresponding horseradish peroxidase (HRP) conjugated secondary antibody. Blots were visualized by autoradiography using the Enhanced Chemiluminescence Detection System (GE Healthcare) according to manufacturer's instructions. For all gels 3-actin was used as a protein loading control.

[5] = tested on: Hsp70 induction in HEK293 cells; experiment: Hsp70 induction in HA-TLR9 transfected HEK293 cells; assay type: cell-based, human; details: 24 h
Protocol: Cell fractionation and immunoblotting. Cells were either treated with DMSO (vehicle) or indicated compounds for 24 hr and lysed in RIPA buffer (50 mM Tris-HCl, pH 7.4, 150 mM NaCl, 0.5% sodium deoxycholate and 0.5% NP40) supplemented with cocktail protease inhibitors (Roche) to produce whole cell lysates. Lysates for cytosol and membrane fractions were harvested using ProteoExtract Subcellular Proteome Extraction Kit (Calbiochem) following the manufacturer's instructions. Protein concentrations were determined using BCA kit (Pierce) according to the manufacturer's instructions. The protein lysates ([…]) were electrophoretically resolved by SDS-PAGE, transferred onto nitrocellulose membranes and probed with the indicated primary antibodies against: HER^2 (Zymed, 28004), Hsp70 (Stressgen, SPA-810), Grp94 (Stressgen, SPA-850), Hsp90α (Abcam, Ab2928), Hsp90β (StressMarq, SMC-107B), Grp78 (Cell Signaling, 3183), Raf-1 (Santa Cruz, sc-133), phospho-Raf-1 (Cell Signaling, 9421), MEK1/2 (Cell Signaling, 8727), phospho-MEK1/2 (Cell Signaling, 9154), ERK1/2 (Cell Signaling, 4695), phospho-ERK1/2 (Cell Signaling, 4370), AKT (Cell Signaling, 9272), GM130 (Cell Signaling, 2296), Flotillin 2 (Cell Signaling, 3436), Histone H4 (Cell Signaling, 2592), Histone H1 (Santa Cruz, sc-8030), Caspase 3 (Cell Signaling, 9665), cleaved PARP (Promega, G7341), a-tubulin (Sigma, T5168) and 3-actin (Sigma, A1978). After washing off the excess antibodies, the membranes were incubated with the corresponding horseradish peroxidase (HRP) conjugated secondary antibody. Blots were visualized by autoradiography using the Enhanced Chemiluminescence Detection System (GE Healthcare) according to manufacturer's instructions. […]
TLR^9-trafficking assay (Yang, Y. et al. Heat shock protein gp96 is a master chaperone for toll-like receptors and is important in the innate function of macrophages. Immunity 26, 215-26 (2007)). […] Fluorescence intensity was quantified using MetaMorph Microscopy Automation and Image Analysis Software (Molecular Devices Inc.) and normalized to the cell number.

[6] = tested on: HER2 at the plasma membrane of SKBr3 cells; experiment: Immunofluorescence of HER2 architecture at the plasma membrane; assay type: cell-based
Protocol: We next investigated the biological significance of the unique association of HER^2 with Grp94 at the plasma membrane of SKBr3 cells. Because the Grp94 inhibitors described here target the ATP-binding pocket of Grp94, they affect Grp94 chaperone activity. Therefore we hypothesized that Grp94 may act on HER^2 at the plasma membrane to stabilize the protein and to regulate its function.
Immunofluorescence. Cells were seeded and grown onto culture slides (BD Falcon) for 24 hrs. After washing with cold PBS, cells were fixed by treating at 4° C. for 20 min with 4% paraformaldehyde in PBS, permeabilized with 0.1% Triton X-100 in PBS containing 10% FBS for 10 min, and blocked with 2% BSA for 1 hr. After washing for four times with PBS, primary antibodies were added onto the chambers and cell were incubated overnight at 4° C., washed again with PBS followed by incubation with the secondary antibody for 1 hr at room temperature. Cell were washed and then mounted and observed under microscope (Leica Upright Confocal SP5). The primary antibodies used in the assay are against: HER^2 (Zymed, 28004), Grp94 (Stressgen, SPA-850), Hsp70 (Stressgen, SPA-810), LAMP1-FITC (Abcam, ab25406), EEA1 (Abcam, ab70521), 58K Golgi-FITC (Abcam, ab27043) and Calnexin (BD, 610523).

[7] = tested on: PANC-1 cells; experiment: Apoptosis assessment (Annexin V / 7AAD); assay type: cell-based
Source text: Annexin V Apoptosis with 7-AAD has been specifically designed for the identification of apoptotic and necrotic cells. Annexin V (or Annexin A5) is a member of the annexin family of intracellular proteins that binds to phosphatidylserine (PS) in a calcium-dependent manner. PS is normally only found on the intracellular leaflet of the plasma membrane in healthy cells, but during early apoptosis, membrane asymmetry is lost and PS translocates to the external leaflet. Fluorochrome-labeled Annexin V can then be used to specifically target and identify apoptotic cells. Annexin V binding alone cannot differentiate between apoptotic and necrotic cells. To help distinguish between the necrotic and apoptotic cells 7-amino-actinomycin D (7-AAD) is used. Early apoptotic cells will exclude 7-AAD, while late stage apoptotic cells will stain positively, due to the passage of these dyes into the nucleus where they bind to DNA. 7-AAD (7-amino-actinomycin D) has a high DNA binding constant and is efficiently excluded by intact cells. It is useful for DNA analysis and dead cell discrimination during flow cytometric analysis. When excited by 488 laser light, 7-AAD fluorescence is detected in the far red range of the spectrum (650 nm long-pass filter).
Cell cycle and apoptosis assessment. Cell cycle and apoptosis were assessed by flow cytometry after single staining with propidium iodide (PI, BD Pharmingen) or double staining with AnnexinV-FITC (BD Pharmingen) and 7AAD (BD Pharmingen), respectively. Specifically, for cell cycle analysis, cells were washed twice with cold PBS and fixed in 70% ethanol overnight at 4° C. Fixed cells were collected at 1800 rpm for 10 min and stained with PBS containing PI and DNase-free RNase A (Sigma-Aldrich) for 1 h at room temperature in the dark. DNA content was measured by BD LSRII flow cytometer and cell further analyzed using program of cell cycle analysis in FloJo (Ashland, OR). The chicken erythrocyte nuclei singlets (CEN, Biosure) were used as the reference. For apoptosis assessment, live cells were collected, washed twice with cold PBS, resuspended in Binding Buffer and stained with AnnexinV-FITC and 7AAD for 15 min at room temperature in the dark. Signals from FL1 and FL3 channels were collected by MACSQuant analyzer and further analyzed using FloJo. Early apoptosis was defined as AnnexinV+/7AAD−, and late apoptosis was observed as AnnexinV+/7AAD+.

[8] = tested on: 97 kinases; experiment: Kinase screen (Discoverx scanEDGE / KINOMEscan); assay type: binding; details: tested at 10 uM
[9] = target: T1, Trap-1 (Homo sapiens, UniProt Q12931); details: read-out: TRAP-1
T1 sequence (Q12931 60-704): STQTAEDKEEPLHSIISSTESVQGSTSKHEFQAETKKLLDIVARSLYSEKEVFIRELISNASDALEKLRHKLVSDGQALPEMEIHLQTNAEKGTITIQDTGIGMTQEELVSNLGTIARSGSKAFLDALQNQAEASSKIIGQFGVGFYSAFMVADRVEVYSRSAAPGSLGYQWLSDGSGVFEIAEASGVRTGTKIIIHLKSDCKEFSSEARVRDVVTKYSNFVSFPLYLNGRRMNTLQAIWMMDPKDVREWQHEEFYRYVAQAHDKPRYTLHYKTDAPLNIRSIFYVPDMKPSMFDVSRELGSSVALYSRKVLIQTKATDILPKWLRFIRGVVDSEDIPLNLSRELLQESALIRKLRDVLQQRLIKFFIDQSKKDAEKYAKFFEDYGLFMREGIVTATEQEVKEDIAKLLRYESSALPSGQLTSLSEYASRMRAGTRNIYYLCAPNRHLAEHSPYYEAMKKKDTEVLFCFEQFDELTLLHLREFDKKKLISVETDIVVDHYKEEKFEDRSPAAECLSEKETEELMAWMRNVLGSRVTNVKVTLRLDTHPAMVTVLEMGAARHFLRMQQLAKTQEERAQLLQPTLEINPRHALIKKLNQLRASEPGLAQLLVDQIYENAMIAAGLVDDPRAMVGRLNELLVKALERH

[10] = target: T2, Hsp90α (Homo sapiens, UniProt P07900); experiment: biochemical
[11] = target: Grp94 (Canis lupus familiaris, UniProt P41148); details: read-out: Grp94; FP competition, 6 nM Cy3B-GM, 10 nM protein, 4° C. for 24 h
Chain of Grp94 (P41148 with tags, fused parts or gaps DELINS287-327GGGG): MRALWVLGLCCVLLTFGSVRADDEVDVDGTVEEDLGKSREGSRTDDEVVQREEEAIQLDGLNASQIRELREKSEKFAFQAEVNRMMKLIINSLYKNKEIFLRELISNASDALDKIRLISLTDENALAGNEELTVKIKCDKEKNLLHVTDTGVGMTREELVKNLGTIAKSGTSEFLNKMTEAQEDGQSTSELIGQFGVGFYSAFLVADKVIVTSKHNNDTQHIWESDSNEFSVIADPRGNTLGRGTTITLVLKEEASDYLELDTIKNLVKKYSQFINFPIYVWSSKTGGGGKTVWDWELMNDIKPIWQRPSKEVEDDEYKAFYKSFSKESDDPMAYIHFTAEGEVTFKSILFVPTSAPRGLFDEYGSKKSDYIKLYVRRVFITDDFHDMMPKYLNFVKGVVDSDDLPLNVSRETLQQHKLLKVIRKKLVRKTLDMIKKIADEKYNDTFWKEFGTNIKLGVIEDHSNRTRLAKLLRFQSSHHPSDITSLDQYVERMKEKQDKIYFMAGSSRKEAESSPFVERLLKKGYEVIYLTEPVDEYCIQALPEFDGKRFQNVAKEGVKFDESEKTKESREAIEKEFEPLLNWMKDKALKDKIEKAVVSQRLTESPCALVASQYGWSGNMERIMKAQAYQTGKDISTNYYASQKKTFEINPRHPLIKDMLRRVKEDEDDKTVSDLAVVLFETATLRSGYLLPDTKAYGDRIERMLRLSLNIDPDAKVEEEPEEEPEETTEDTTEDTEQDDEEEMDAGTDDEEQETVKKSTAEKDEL

[12] = target: Hsp90β (Homo sapiens, UniProt P08238)
Chain of Hsp90β (P08238 whole entry): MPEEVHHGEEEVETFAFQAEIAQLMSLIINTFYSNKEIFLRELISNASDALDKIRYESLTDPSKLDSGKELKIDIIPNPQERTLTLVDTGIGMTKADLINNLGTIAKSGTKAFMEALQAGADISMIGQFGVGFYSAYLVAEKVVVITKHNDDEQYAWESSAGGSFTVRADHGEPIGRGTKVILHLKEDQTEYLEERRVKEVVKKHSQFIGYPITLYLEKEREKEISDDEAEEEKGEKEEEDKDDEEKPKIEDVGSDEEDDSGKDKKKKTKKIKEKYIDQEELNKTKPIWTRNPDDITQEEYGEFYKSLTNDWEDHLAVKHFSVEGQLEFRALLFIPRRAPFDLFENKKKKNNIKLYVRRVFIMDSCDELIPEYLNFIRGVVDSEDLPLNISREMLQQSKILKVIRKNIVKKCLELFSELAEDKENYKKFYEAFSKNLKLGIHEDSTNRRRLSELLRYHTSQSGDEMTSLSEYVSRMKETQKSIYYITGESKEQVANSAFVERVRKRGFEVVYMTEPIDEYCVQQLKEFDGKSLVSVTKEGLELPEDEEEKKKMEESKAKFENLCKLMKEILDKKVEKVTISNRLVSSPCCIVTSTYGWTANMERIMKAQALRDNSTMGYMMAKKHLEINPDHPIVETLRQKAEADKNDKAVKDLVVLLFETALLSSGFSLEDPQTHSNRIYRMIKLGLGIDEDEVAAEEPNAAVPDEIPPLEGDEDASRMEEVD

[13] = tested on: Human Umbilical Vein Endothelial Cells (HUVECs); experiment: Angiogenesis studies with HUVEC cells; assay type: cell-based
[14] = tested on: TLR9 ligand CpG DNA induced TNF-α production in RAW 264.7 macrophages; experiment: TNFα ELISA, CpG DNA stimulated macrophages; assay type: cell-based, mouse
[15] = target: T2, Hsp90α
[16] = target: T1, Trap-1; details: relative to Hsp90
[17] = tested on: PANC1 EGFR-overexpressing cells; details: Mol Cancer Ther 2006; 5:2051-2059; cited from earlier work

## COC1=C2C[C@@H](C)C[C@H](OC)[C@H](O)[C@@H](C)/C=C(\C)[C@H](OC(N)=O)[C@@H](OC)/C=C\C=C(/C)C(=O)NC(=CC1=O)C2=O [GM, geldanamycin, reference compound]
[1]
  toxicity to C2C12 cells: cell killing

## COc1cc(Cc2nc3c(N)nc(F)nc3n2CCOC(C)C)cc(OC)c1OC [PU-29F]
[2]
  IGF-II secretion: minimally effecting
[3]
  TLR9 trafficking: minimally effecting; also recorded: fails to inhibit TLR^9 trafficking
[4]
  AKT degradation: degradation of AKT; also recorded: degrade AKT
  Hsp70 induction: dose-dependent increase in Hsp90 levels; also recorded: induce Hsp70
[5]
  Hsp70 induction: induces Hsp70
[6]
  effect on HER2 architecture at the plasma membrane: failed to disturb the membrane HER^2 architecture
[7]
  induction of apoptosis: very little effect

## C#CCCCn1c(Sc2ccc(Cl)cc2Cl)nc2c(N)ncnc21 [PU-H39]
[8]
  effect on the tested 97 kinases: no significant effect
[9]
  IC50: 145 ± 13.4 µM
[10]; FP competition, 6 nM Cy3B-GM, 10 nM protein, 4° C. for 24 h
  IC50: > 300 µM
[11]
  IC50: 120 ± 40 nM
[12]
  IC50: > 300 µM

## C#CCCCn1cnc(N)c2nc(Sc3ccc(C)cc3C)nc1-2 [PU-H54]
[13]
  HUVEC cell proliferation: does not affect substantially the cell proliferation
  angiogenic-like transformation of HUVECs induced by Grp94 and by peak 2: able to change the angiogenic-like transformation of HUVECs; also recorded: displays an anti-angiogenic effect; also recorded: inhibited
[14]
  CpG DNA induced TNF-α production: inhibited this response in a concentration dependent manner; also recorded: inhibit
[15]
  affinity for Hsp90: low affinity
[9]
  IC50: 54.1 ± 4.6 µM
[10]
  IC50: > 250 µM
[12]
  IC50: > 250 µM

## CC(C)NCCCn1c(Sc2cc3c(cc2I)OCO3)nc2c(N)ncnc21 [PU-H71]
[3]
  TLR9 trafficking: inhibit TLR^9 trafficking
[4]
  AKT degradation: degrade AKT
  Hsp70 induction: induce Hsp70
[5]
  Hsp70 induction: induce Hsp70
[7]
  induction of apoptosis: very little effect
[16]
  decrease in binding efficacy for Trap-1: 5 fold

## C#Cc1cccc(Nc2ncnc3cc(OCCOC)c(OCCOC)cc23)c1 [erlotinib]
[17]
  reported resistance of PANC1 cells: resistant
